Target: Xanthine dehydrogenase/oxidase (Homo sapiens, UniProt P47989)
Assay: Inhibition of xanthine oxidase by spectrophotometry

Sequence of Xanthine dehydrogenase/oxidase (P47989 whole entry): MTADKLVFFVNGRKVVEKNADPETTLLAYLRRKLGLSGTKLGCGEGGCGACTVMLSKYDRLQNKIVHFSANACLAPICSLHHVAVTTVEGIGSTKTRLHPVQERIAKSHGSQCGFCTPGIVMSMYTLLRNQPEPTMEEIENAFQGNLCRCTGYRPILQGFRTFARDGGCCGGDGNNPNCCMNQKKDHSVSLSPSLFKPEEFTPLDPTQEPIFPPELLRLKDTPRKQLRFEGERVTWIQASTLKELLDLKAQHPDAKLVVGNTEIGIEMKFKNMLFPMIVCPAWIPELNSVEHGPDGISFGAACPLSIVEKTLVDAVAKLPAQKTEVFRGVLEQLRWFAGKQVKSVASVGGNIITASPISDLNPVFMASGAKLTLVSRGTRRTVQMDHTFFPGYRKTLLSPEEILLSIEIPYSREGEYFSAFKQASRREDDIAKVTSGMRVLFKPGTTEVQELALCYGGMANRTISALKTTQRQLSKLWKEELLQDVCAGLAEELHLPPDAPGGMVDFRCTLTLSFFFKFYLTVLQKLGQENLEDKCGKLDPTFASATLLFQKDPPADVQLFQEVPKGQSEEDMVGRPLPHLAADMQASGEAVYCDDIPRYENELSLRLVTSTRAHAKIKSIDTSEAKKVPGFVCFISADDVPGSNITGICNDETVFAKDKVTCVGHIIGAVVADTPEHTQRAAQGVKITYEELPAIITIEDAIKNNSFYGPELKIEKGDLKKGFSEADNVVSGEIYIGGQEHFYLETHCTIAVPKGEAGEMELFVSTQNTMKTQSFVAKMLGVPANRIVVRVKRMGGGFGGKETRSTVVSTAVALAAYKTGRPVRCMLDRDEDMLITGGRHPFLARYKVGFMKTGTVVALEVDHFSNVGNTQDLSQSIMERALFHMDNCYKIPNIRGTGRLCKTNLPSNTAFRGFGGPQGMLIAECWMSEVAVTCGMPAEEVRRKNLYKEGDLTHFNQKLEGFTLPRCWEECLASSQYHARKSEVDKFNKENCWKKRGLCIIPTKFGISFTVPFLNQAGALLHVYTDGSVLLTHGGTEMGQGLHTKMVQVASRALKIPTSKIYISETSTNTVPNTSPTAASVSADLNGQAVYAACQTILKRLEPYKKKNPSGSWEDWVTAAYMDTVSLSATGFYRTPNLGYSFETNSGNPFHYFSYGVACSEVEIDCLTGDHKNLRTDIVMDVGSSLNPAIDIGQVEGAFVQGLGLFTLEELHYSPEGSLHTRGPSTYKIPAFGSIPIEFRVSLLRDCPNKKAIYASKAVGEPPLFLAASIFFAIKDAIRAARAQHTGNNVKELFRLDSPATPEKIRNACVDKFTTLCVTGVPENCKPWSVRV

IC50 [µM] | Structure (SMILES)
36.5 | COc1ccc(-c2oc3cc(O)c(OC)c(O)c3c(=O)c2OC)cc1 [SANTIN]
36 | COc1c(O)cc2oc(-c3ccc(O)c(O)c3)c(OC)c(=O)c2c1O [AXILLARIN]
